# Target: T1, human HPK1 protein (Homo sapiens, UniProt Q92918)
# T1 construct: recombinant human HPK1 protein (a.a. 1-346) was expressed in Sf9 insect cells; GST (N); purchased Signalchem M23-11G; host or cells: Sf9 insect cells (baculovirus)
# T1 sequence (Q92918 1-346): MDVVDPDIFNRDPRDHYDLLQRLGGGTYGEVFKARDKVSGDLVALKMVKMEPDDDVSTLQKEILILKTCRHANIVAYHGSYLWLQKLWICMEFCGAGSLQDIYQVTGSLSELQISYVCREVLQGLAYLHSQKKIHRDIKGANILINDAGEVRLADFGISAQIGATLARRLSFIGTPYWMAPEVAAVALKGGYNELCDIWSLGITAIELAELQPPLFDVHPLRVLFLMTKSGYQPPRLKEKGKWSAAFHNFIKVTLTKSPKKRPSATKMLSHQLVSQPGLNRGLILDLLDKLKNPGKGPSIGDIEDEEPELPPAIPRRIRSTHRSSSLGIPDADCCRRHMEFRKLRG
# Assay: Human HPK1 protein TR-FRET assay
# Format: biochemical
# Conditions: 1 mM ATP, Table 19
# Method in brief: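 Read-out was TR-FRET using Eu-labeled anti-phospho-CREB (Ser133) antibody, with the 665/615 nm signal ratio normalised to DMSO-only wells and fitted by a 4-parameter logistic model for IC50. Reactions held 10 nM Sf9-expressed GST-HPK1 (a.a. 1-346), 100 nM CREBtide and 1 mM ATP, run 60 minutes at room temperature, pH 7.5.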
row,Structure (SMILES),IC50 [nM]
1,C[C@H]1c2cc(Oc3ccnc4[nH]ccc34)ccc2CCN1C(=O)Nc1ccc(CN2CCNCC2)c(C(F)(F)F)c1 [V-1],< 500
2,CCN1CCN(Cc2ccc(NC(=O)N3CCc4ccc(Oc5ccnc6[nH]c(CCOC)cc56)cc4[C@@H]3C)cc2C(F)(F)F)CC1 [V-25],< 500
3,CCN1CCN(Cc2ccc(NC(=O)N3CCc4cc(F)c(Oc5ccnc6[nH]c(C)cc56)cc4C3C)cc2C(F)(F)F)CC1 (stereo not shown) [IV-26],500 to 5000
4,"CCN1CCN(Cc2ccc(NC(=O)N3CCc4ccc(Oc5ncnn6cccc56)cc4C3)cc2C(F)(F)F)CC1 [compound 1, N-[4-[(4-Ethylpiperazin-1-yl)methyl]-3-(trifluoromethyl)phenyl]-7-[pyrrolo[2,1-f][1,2,4]triazin-4-yloxy]-1,2,3,4-tetrahydroisoquinoline-2-carboxamide]",< 500
5,CCN1CCN(Cc2ccc(NC(=O)N3CCc4ccc(Oc5ccnc6[nH]c(-c7cnn(C)c7)cc56)cc4[C@@H]3C)cc2C(F)(F)F)CC1 [V-27],< 500
6,"CCN1CCN(Cc2ccc(NC(=O)N3Cc4cc(Oc5ccnc6[nH]ccc56)ccc4C(C)C3)cc2C(F)(F)F)CC1 (single isomer, unassigned) [IV-2]",< 500
7,CCN1CCN(Cc2ccc(NC(=O)N3Cc4cc(Oc5ccnc6[nH]ccc56)ccc4C4(CC4)C3)cc2C(F)(F)F)CC1 [IV-23],< 500
8,"CCN1CCN(Cc2ccc(NC(=O)N3CCc4ccc(Nc5ncnn6cccc56)cc4C3)cc2C(F)(F)F)CC1 [compound 11, N-(4-((4-Ethylpiperazin-1-yl)methyl)-3-(trifluoromethyl)phenyl)-7-(pyrrolo[2,1-f][1,2,4]triazin-4-ylamino)-3,4-dihydroisoquinoline-2(1H)-carboxamide]",500 to 5000
9,CCN1CCN(Cc2ccc(NC(=O)N3CCc4nc(C)c(Oc5ccnc6[nH]ccc56)cc4C3)cc2C(F)(F)F)CC1 [X-5],< 500
10,CCN1CCN(Cc2ccc(NC(=O)N3CCc4c(C)cc(Oc5ccnc6[nH]ccc56)cc4C3C)cc2C(F)(F)F)CC1 (stereo not shown) [IV-5],500 to 5000
11,CCN1CCN(Cc2ccc(NC(=O)N3CCc4c(C#N)cc(Oc5ccnc6[nH]ccc56)cc4C3C)cc2C(F)(F)F)CC1 (stereo not shown) [IV-11],500 to 5000
12,CCN1CCN(Cc2ccc(NC(=O)N3CCc4ccc(Oc5ccnc6[nH]ncc56)cc4[C@@H]3C)cc2C(F)(F)F)CC1 [V-5],< 500
13,CCN1CCN(Cc2ccc(NC(=O)N3CCc4ccc(Oc5ccnc(NC(=O)C6CC6)c5)cc4C3)cc2C(F)(F)F)CC1 [II-15],< 500
14,C[C@H]1c2cc(Oc3ccnc4[nH]ccc34)ccc2CCN1C(=O)Nc1ccc(CN2CCN(C3COC3)CC2)c(C(F)(F)F)c1 [V-21],500 to 5000
15,CCN1CCN(Cc2ccc(NC(=O)N3CCc4ccc(Oc5ccnn6cc(C#N)cc56)cc4[C@@H]3C)cc2C(F)(F)F)CC1 [V-8],< 500
16,"CCN1CCN(Cc2ccc(NC(=O)N3CCc4cc(F)c(Oc5ccnc6[nH]ccc56)cc4C3C)cc2C(F)(F)F)CC1 (single isomer, unassigned) [IV-6]",< 500
17,CCN1CCN(Cc2ccc(NC(=O)N3CCc4ccc(Oc5ncnc6[nH]cnc56)cc4C3)cc2C(F)(F)F)CC1 [II-6],< 500

# The remaining lines, values ahead:
row,IC50 [nM],Structure (SMILES)
1,500 to 5000,Cc1cc2c(Oc3ccc4c(c3)[C@H](C)N(C(=O)Nc3cnc(OC5CN(C)C5)c(C(F)(F)F)c3)CC4)ccnc2[nH]1 [VI-12]
2,< 500,CC1CN(C(=O)Nc2cnc(OC3CCN(C)CC3)c(C(F)(F)F)c2)Cc2cc(Oc3ccnc4[nH]ncc34)cnc21 (stereo not shown) [VII-10]
3,< 500,Cc1cc2c(Oc3ccc4c(c3)[C@H](C)N(C(=O)Nc3cnc(OC5CCN(C)CC5)c(C(F)(F)F)c3)CC4)ccnc2[nH]1 [VI-2]
4,500 to 5000,CCN1CCN(Cc2ccc(NC(=O)N3CCc4ncc(Oc5ccnc6[nH]ncc56)cc4C3C)cc2C(F)(F)F)CC1 (stereo not shown) [VIII-3]
5,500 to 5000,CCN1CCN(Cc2ccc(NC(=O)N3CCc4ncc(Oc5ccnc6[nH]c(C)cc56)cc4C3C)cc2C(F)(F)F)CC1 (stereo not shown) [VIII-1]
6,5000 to 10000,Cc1cc2c(Oc3ccc4c(c3)[C@H](C)N(C(=O)Nc3cnc(Oc5ccncc5)c(C(F)(F)F)c3)CC4)ccnc2[nH]1 [VI-14]
7,500 to 5000,Cc1cc2c(Oc3ccc4c(c3)[C@H](C)N(C(=O)Nc3cnc(OCCn5ccnc5)c(C(F)(F)F)c3)CC4)ccnc2[nH]1 [VI-17]
8,500 to 5000,Cc1cc2c(Oc3ccc4c(c3)[C@H](C)N(C(=O)Nc3cnc(OC5CCCN(C)CC5)c(C(F)(F)F)c3)CC4)ccnc2[nH]1 (mixture of isomers) [VI-13]
9,< 500,"CCC1CN(C(=O)Nc2ccc(CN3CCN(CC)CC3)c(C(F)(F)F)c2)Cc2cc(Oc3ccnc4[nH]c(C)cc34)cnc21 (single isomer, unassigned) [VII-23]"

# Same assay, conditions: 1 mM ATP, Table 20
row,Structure (SMILES),IC50 [nM]
1,"CC[C@H]1CN(C(=O)Nc2ccc(CN3CCN(C)CC3)c(C(F)(F)F)c2)Cc2cc(Oc3ccnc4[nH]c(C(=O)N(C)C)cc34)cnc21 [compound 21, (8S)-3-[[2-(dimethylcarbamoyl)-1H-pyrrolo[2,3-b]pyridin-4-yl]oxy]-8-ethyl-N-[4-[(4-methylpiperazin-1-yl)methyl]-3-(trifluoromethyl)phenyl]-7,8-dihydro-5H-1,6-naphthyridine-6-carboxamide]",< 500
2,CCN1CCN(Cc2ccc(NC(=O)N3Cc4cc(Oc5ccnc6[nH]ccc56)cnc4C[C@@H]3C)cc2C(F)(F)F)CC1 [XVIII-18],< 500

# Next, values leading:
row,IC50 [nM],Structure (SMILES)
1,500 to 5000,CCN1CCN(Cc2ccc(NC(=O)N3CCc4ncc(Oc5ncnc6[nH]c(C)cc56)cc4[C@@H]3C)cc2C(F)(F)F)CC1 [XI-7]
2,< 500,CC[C@@H]1CN(C(=O)Nc2ccc(CN3CCNCC3)c(C(F)(F)F)c2)Cc2cc(Oc3ccnc4[nH]c(C5(O)COC5)cc34)cnc21 [XIV-48]
3,< 500,C[C@@H]1Cc2ccc(Oc3c(F)cnc4[nH]c(C5(O)CC5)cc34)cc2CN1C(=O)Nc1cnc(CN2CCN(C)CC2)c(C(F)(F)F)c1 [XVI-8]
4,< 500,C[C@H]1c2cc(Oc3ccnc4[nH]c(CO)cc34)ccc2CCN1C(=O)Nc1ccc(CN2CCN(C)CC2)c(C(F)F)c1 [XIII-9]
5,< 500,C[C@H]1c2cc(Oc3c(F)cnc4[nH]c(-c5cnn(C)c5)cc34)ccc2CCN1C(=O)Nc1ccc(CN2CCN(C)CC2)c(C(F)(F)F)c1 [XII-3]
6,< 500,CC[C@H]1CN(C(=O)Nc2ccc(CN3CCN(C)CC3)c(C(F)(F)F)c2)Cc2cc(Oc3ncnn4cc(C(=O)N(C)C)cc34)cnc21 [XIV-144]
7,< 500,CC[C@H]1CN(C(=O)Nc2ccc(CN3CCN(CCF)CC3)c(C(F)(F)F)c2)Cc2cc(Oc3ccnc4[nH]c(C(=O)N(C)C)cc34)cnc21 [XIV-138]
8,< 500,CCC1CN(C(=O)Nc2ccc(CN3CCN(CC)CC3)c(C(F)(F)F)c2)Cc2cc(Oc3ccnc4[nH]c(C5=CCN(C(=O)C6CC6)CC5)cc34)cnc21 (stereo not shown) [XIV-155]
9,< 500,CCC1CN(C(=O)Nc2ccc(CN3CCN(CC)CC3)c(C(F)(F)F)c2)Cc2cc(Oc3cc(NC(=O)c4cnn(C)c4)ncc3F)cnc21 (stereo not shown) [XIV-92]
10,< 500,CCN1CCN(Cc2ccc(NC(=O)N3Cc4cc(Oc5ccnc6[nH]ccc56)cnc4[C@@H](C)C3)cc2C(F)(F)F)CC1 [XI-10]
11,< 500,CN1CCN(Cc2ncc(NC(=O)N3CCc4ccc(Oc5c(F)cnc6[nH]c(-c7cn[nH]c7)cc56)cc4C3)cc2C(F)(F)F)CC1 [XII-8]
12,5000 to 10000,CC[C@@H]1CN(C(=O)Nc2ccc(CN3CCNCC3)c(C(F)(F)F)c2)Cc2cc(Oc3ccnn4cc(C(=O)N(C)C)nc34)cnc21 [XIV-116]
13,< 500,CC[C@H]1CN(C(=O)Nc2ccc(CN3CCN(C)CC3)c(C(F)F)c2)Cc2cc(Oc3ccnc4[nH]c(C5CC5)cc34)cnc21 [XIV-59]
14,500 to 5000,CCN1CCN(Cc2ccc(NC(=O)N3CCc4c(cc(F)cc4Oc4ncnn5cccc45)C3)cc2C(F)(F)F)CC1 [XI-2]
15,500 to 5000,CC[C@H]1CN(C(=O)Nc2ccc(CN3CCN(C)CC3)c(C(F)(F)F)c2)Cc2cc(Oc3ccnn4cc(C(=O)NC)nc34)cnc21 [XIV-120]
16,< 500,C[C@H]1CN(C(=O)Nc2ccc(CN3CCN(C)CC3)c(C(F)(F)F)c2)Cc2cc(Oc3c(F)cnc4[nH]c(-c5cnn(C)c5)cc34)ccc21 [XII-12]
17,< 500,CC[C@H]1CN(C(=O)Nc2ccc(CN3CCNCC3)c(C(F)(F)F)c2)Cc2cc(Oc3ccnc4[nH]c(C#N)cc34)ccc21 [XV-17]
18,< 500,CC[C@H]1CN(C(=O)Nc2ccc(CN3CCN(C)CC3)c(C(F)(F)F)c2)Cc2cc(Oc3ccnc4[nH]c(CS(C)(=O)=O)cc34)cnc21 [XIV-150]
19,< 500,CN1CCN(Cc2ncc(NC(=O)N3CCc4ccc(Oc5c(F)cnc6[nH]c(-c7cnn(C)c7)cc56)cc4C3)cc2C(F)(F)F)CC1 [XII-1]
20,< 500,C[C@@H]1Cc2ccc(Oc3c(F)cnc4[nH]c(-c5cnn(C)c5)cc34)cc2CN1C(=O)Nc1cnc(CN2CCN(C)CC2)c(C(F)(F)F)c1 [XVI-5]
21,< 500,CC[C@H]1CN(C(=O)Nc2ccc(CN3CCN(C)CC3)c(C(F)(F)F)c2)Cc2cc(Oc3ccnc4[nH]c(C(N)=O)cc34)ccc21 [XV-30]
22,< 500,CC[C@@H]1CN(C(=O)Nc2cnc(OC3CCN(C)CC3)c(C(F)(F)F)c2)Cc2cc(Oc3ccnc4[nH]c(CCOC)cc34)cnc21 [XIV-34]
23,< 500,"CCN1CCN(Cc2ccc(NC(=O)N3Cc4cc(Oc5ccnc6[nH]c(C7CC7)nc56)cnc4C(C)C3)cc2C(F)(F)F)CC1 (single isomer, unassigned) [XIV-15]"
24,< 500,CN1CCN(Cc2ccc(NC(=O)N3CCc4ccc(Oc5c(F)cnc6[nH]c(-c7cccnc7)cc56)cc4C3)cc2C(F)(F)F)CC1 [XII-7]

# Reference: patent US20210139484A1, “DIHYDROISOQUINOLINE-2(1H)-CARBOXAMIDE AND RELATED COMPOUNDS AND THEIR USE IN TREATING MEDICAL CONDITIONS” (GOSSAMER BIO SERVICES, INC., priority 2018, published 2021)
